Assay results: ChEMBL document CHEMBL4342469, “Substituent Position of Iminocyclitols Determines the Potency and Selectivity for Gut Microbial Xenobiotic-Reactivating Enzymes” (J Med Chem, 2020)
Activity calls are given as the source filed them. The rule behind the calls is not given here.

Legend:
Beta-glucuronidase [1] = target: T1, Beta-glucuronidase (Bos taurus, UniProt A3KMY8); test: Inhibition of bovine GUS pre-incubated for 5 to 30 mins before 4-methylumbelliferone beta-D-glucuronide substrate addition at pH 4.5
T1 sequence (A3KMY8 whole entry): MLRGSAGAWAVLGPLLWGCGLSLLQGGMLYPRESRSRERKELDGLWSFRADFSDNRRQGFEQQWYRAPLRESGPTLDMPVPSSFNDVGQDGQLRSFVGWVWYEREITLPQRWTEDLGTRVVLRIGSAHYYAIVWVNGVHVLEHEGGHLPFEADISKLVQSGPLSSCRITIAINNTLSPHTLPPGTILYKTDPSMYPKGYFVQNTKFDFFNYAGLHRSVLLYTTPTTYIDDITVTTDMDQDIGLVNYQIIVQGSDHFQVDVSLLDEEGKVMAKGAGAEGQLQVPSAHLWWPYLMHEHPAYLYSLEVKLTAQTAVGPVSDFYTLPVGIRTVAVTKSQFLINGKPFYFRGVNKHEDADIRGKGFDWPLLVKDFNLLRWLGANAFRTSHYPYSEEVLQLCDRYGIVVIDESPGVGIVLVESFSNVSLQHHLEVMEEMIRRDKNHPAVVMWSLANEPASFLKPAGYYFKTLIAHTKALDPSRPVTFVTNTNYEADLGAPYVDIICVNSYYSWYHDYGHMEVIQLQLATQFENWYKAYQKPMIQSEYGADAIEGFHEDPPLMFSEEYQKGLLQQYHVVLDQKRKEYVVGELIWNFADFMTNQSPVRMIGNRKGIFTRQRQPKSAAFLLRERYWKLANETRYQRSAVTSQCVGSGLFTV

[2] = Inhibition of Ruminococcus gnavus GUS pre-incubated for 5 to 30 mins before 4-methylumbelliferone beta-D-glucuronide substrate addition at pH […]; set-up: species or system Mediterraneibacter gnavus
Beta-glucuronidase [3] = target: T2, Beta-glucuronidase (Escherichia coli (strain K12), UniProt P05804); test: Inhibition of Escherichia coli GUS pre-incubated for 5 to 30 mins before 4-methylumbelliferone beta-D-glucuronide substrate addition at pH 5.5
[4] = Inhibition of Bacteroides fragilis GUS pre-incubated for 5 to 30 mins before 4-methylumbelliferone beta-D-glucuronide substrate addition at pH 5.5
[5] = Inhibition of Clostridium perfringens GUS pre-incubated for 5 to 30 mins before 4-methylumbelliferone beta-D-glucuronide substrate addition at pH 5.5
[6] = Inhibition of Clostridium perfringens GUS pre-incubated for 5 to 30 mins before 4-methylumbelliferone beta-D-glucuronide substrate addition at pH 6.7
[7] = (§1) Selectivity index, ratio of Ki for inhibition of Ruminococcus gnavus GUS pre-incubated for 5 to 30 mins before 4-methylumbelliferone beta-D-glucuronide substrate addition at pH 5.5 to Ki for inhibition of Escherichia coli GUS pre-incubated for 5 to 30 mins before 4-methylumbelliferone beta-D-glucuronide substrate addition at pH 5.5
[8] = Inhibition of Bacteroides fragilis GUS pre-incubated for 5 to 30 mins before 4-methylumbelliferone beta-D-glucuronide substrate addition at pH 6.7
[9] = as §1, with “Bacteroides fragilis” for “Ruminococcus gnavus”, “Clostridium perfringens” for “Escherichia coli”
Beta-glucuronidase [10] = target: T2, Beta-glucuronidase; test: Inhibition of Escherichia coli GUS pre-incubated for 5 to 30 mins before 4-methylumbelliferone beta-D-glucuronide substrate addition at pH 6.7
[11] = Inhibition of Ruminococcus gnavus GUS pre-incubated for 5 to 30 mins before 4-methylumbelliferone beta-D-glucuronide substrate addition at pH 6.7; set-up: species or system Mediterraneibacter gnavus
Beta-glucuronidase [12] = target: T1, Beta-glucuronidase; test: Inhibition of bovine GUS pre-incubated for 5 to 30 mins before 4-methylumbelliferone beta-D-glucuronide substrate addition at pH 6.7
Bacteroides fragilis [13] = test: Inhibition of Bacteroides fragilis GUS pre-incubated for 5 to 30 mins before 4-methylumbelliferone beta-D-glucuronide substrate addition at pH 3.6 to 6.9
Bacteroides fragilis [14] = test: Inhibition of Bacteroides fragilis GUS pre-incubated for 5 to 30 mins before 4-methylumbelliferone beta-D-glucuronide substrate addition at pH 6.5 to 7.9
[15] = target: Beta-glucuronidase (Escherichia coli (strain K12)) (UniProt P05804); test: Inhibition of Escherichia coli GUS pre-incubated for 5 to 30 mins before 4-methylumbelliferone beta-D-glucuronide substrate addition at pH 3.6 to 6.9
[16] = tested on: Mediterraneibacter gnavus; test: Inhibition of Ruminococcus gnavus GUS pre-incubated for 5 to 30 mins before 4-methylumbelliferone beta-D-glucuronide substrate addition up to pH 6.9
[17] = target: Beta-glucuronidase (Escherichia coli (strain K12)) (UniProt P05804); test: Inhibition of Escherichia coli GUS pre-incubated for 5 to 30 mins before 4-methylumbelliferone beta-D-glucuronide substrate addition at pH 6.5 to 7.9

T2 sequence (P05804 whole entry): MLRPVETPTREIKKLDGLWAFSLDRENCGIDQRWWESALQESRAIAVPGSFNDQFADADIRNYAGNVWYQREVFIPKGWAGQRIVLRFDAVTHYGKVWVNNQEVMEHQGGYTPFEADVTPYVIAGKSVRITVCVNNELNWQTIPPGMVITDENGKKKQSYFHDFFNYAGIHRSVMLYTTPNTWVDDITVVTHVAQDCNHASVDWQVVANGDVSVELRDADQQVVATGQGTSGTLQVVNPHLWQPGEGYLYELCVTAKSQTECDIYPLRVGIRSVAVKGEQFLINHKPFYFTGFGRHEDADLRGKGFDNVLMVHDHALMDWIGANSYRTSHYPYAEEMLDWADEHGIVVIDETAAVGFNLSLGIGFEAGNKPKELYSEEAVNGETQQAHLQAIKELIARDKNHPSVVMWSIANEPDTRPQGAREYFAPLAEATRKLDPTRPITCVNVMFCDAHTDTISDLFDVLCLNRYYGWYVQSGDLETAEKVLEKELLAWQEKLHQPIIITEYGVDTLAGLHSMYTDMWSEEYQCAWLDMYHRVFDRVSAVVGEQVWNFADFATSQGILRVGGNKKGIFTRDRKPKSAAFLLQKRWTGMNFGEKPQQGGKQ
Chain of Beta-glucuronidase (Escherichia coli (strain K12)) (P05804 whole entry, looked up): as the sequence (P05804 whole entry) above

Row | SMILES | Ki (Beta-glucuronidase [1]) [µM] | Ki [2] [µM] | Ki (Beta-glucuronidase [3]) [µM] | Ki [4] [µM] | Ki [5] [µM] | Ki [6] [µM] | Ratio Ki [7] | Ki [8] [µM] | Ratio Ki [9] | Ki (Beta-glucuronidase [10]) [µM] | Ki [11] [µM] | Ki (Beta-glucuronidase [12]) [µM] | inhibition (Bacteroides fragilis [13]) | inhibition (Bacteroides fragilis [14]) | inhibition [15] | inhibition [16] | inhibition [17]
1 | O=C(O)[C@H]1OC(=O)[C@H](O)[C@@H](O)[C@@H]1O | 4.87 | 40.8 | 15.8 | 0.69 | 4.51 |  |  |  |  |  |  |  |  |  |  |  | 
2 | O=C(O)[C@H]1NC(=O)[C@H](O)[C@@H](O)[C@@H]1O | 0.132 | 0.28 | 0.232 | 0.069 | 0.101 |  |  |  |  |  |  |  |  |  |  |  | 
3 | O=C(O)[C@H]1NC[C@H](O)[C@@H](O)[C@@H]1O | 21.5 | 21 | 17.5 | 2.41 | 12.3 |  |  |  |  |  |  |  |  |  |  |  | 
4 | CCCN1C[C@@H](O)[C@H](O)[C@@H](C(=O)O)C1 | 187 | 17.6 | 59.2 | 38.7 | 37.3 | 51.8 | 700 | 15.5 | 190 | 41.3 | 5.45 | 61.2 |  |  |  |  | 
5 | O=C(O)[C@H]1CNC[C@@H](O)[C@@H]1O | 0.048 | 0.05 | 0.034 |  | 0.011 | 0.0161 |  | 0.0036 |  | 0.012 | 0.0039 | 0.0122 | Active | Active | Active | Active | Active
6 | CCC[C@@H]1NC[C@@H](O)[C@H](O)[C@H]1C(=O)O | 32.2 | 94.6 | 0.182 | 7.45 | 0.425 | 0.179 |  | 3.66 |  | 0.0737 | 51.8 | 5.87 |  |  |  |  | 
